These results are taken from ChEMBL document CHEMBL1201862, “PubChem BioAssay data set” (2004).

Structures are written as SMILES.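 Values below derive from 48-hour exposures of cells grown in 96-well plates, with endpoints linearly interpolated between the two concentrations bracketing the appropriate inhibition level. The concentration for 50% growth inhibition is given as GI50.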 The source made the active and inactive calls. Rule as the data show it: active = GI50 up to about 1.1 µM and inactive = higher. A value given as a limit tells only on which side of the number the result lay.

What all share (experiment): growth of human tumour cells (NCI), 48 h
Experiment [1] relates to ACHN.
Experiment [2] deals with HCT-15.
Experiment [3] has as its system HL-60.
In experiment [4] the test system is HOP-92.
Experiment [5] deals with K562.
For experiment [6], the system named is KM12.
For experiment [7], the system named is LOX IMVI.
The test system of experiment [8] is MCF7.
For experiment [9], the system named is NCI-H522.
Experiment [10] relates to OVCAR-3.
Experiment [11] deals with OVCAR-4.
The subject of experiment [12] is OVCAR-5.
For experiment [13], the system named is PC-3.
Experiment [14] concerns RXF 393.
Experiment [15] concerns SK-MEL-2.
Experiment [16] relates to SK-MEL-5.
Experiment [17] deals with SK-OV-3.
Experiment [18] concerns SW-620.
The subject of experiment [19] is TK-10.
Experiment [20] concerns UO-31.

For `CCOC(=O)C1=C(O)C2C3CC4C2C(O)=C(C(=O)OCC)C2C1C3C42` (stereo not given), the GI50 in experiment [1] was > 100 µM (inactive); in experiment [2] it was greater than 100 µM; in experiment [3] it was 24.8 µM (inactive); in experiment [4], 95.5 µM (inactive); in experiment [5], > 100 µM (inactive); in [6] it was > 100 µM (inactive). For the same compound, the GI50 is 98.6 µM (inactive) in experiment [7]; > 100 µM (inactive) in experiment [8]; > 100 µM (inactive) in experiment [9]; > 100 µM (inactive) in [10]; > 100 µM (inactive) in experiment [11]; > 100 µM (inactive) in experiment [12]. Also, the GI50 in [13], in experiment [14], in [15], in experiment [16], in experiment [17] and in experiment [18] was > 100 µM (inactive) each time. The GI50 in [19] and in experiment [20] was > 100 µM (inactive) throughout.
